The text below walks through data of PMC9007595 (Molecular microbiology, 2020).

The target in one series is T1, Mtb HtpG (Mycobacterium tuberculosis, UniProt P9WMJ7).
T1 sequence (P9WMJ7 1-647): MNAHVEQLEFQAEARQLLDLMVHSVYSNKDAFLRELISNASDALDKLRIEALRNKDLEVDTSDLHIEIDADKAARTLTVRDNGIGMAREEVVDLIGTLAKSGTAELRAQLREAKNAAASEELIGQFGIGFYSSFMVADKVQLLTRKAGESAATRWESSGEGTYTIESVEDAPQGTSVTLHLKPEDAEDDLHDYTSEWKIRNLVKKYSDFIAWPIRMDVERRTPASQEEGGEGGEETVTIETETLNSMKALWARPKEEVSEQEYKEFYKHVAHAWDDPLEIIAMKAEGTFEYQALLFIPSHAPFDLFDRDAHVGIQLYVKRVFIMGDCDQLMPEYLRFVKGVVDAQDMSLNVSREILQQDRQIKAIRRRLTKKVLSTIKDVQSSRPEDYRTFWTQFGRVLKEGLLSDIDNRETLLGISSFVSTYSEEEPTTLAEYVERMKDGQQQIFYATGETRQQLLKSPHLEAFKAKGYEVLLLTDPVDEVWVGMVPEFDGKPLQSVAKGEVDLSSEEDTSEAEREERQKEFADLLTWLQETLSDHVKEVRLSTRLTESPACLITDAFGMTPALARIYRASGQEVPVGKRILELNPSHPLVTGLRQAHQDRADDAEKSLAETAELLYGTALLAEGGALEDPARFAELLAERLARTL
The series is described as follows: […]. In kind it is binding.

Series [1] addresses yeast Hsp90 (S. cerevisiae Hsp82) (Saccharomyces cerevisiae, UniProt P02829). The series can be described thus: ATPase activity assay with purified protein. The format is biochemical.
The series “SEC” concerns the molecule itself. The series can be described thus: SEC. In general terms: In gel filtration, larger molecules generally elute earlier.

Sequence of yeast Hsp90 (S. cerevisiae Hsp82) (P02829 whole entry): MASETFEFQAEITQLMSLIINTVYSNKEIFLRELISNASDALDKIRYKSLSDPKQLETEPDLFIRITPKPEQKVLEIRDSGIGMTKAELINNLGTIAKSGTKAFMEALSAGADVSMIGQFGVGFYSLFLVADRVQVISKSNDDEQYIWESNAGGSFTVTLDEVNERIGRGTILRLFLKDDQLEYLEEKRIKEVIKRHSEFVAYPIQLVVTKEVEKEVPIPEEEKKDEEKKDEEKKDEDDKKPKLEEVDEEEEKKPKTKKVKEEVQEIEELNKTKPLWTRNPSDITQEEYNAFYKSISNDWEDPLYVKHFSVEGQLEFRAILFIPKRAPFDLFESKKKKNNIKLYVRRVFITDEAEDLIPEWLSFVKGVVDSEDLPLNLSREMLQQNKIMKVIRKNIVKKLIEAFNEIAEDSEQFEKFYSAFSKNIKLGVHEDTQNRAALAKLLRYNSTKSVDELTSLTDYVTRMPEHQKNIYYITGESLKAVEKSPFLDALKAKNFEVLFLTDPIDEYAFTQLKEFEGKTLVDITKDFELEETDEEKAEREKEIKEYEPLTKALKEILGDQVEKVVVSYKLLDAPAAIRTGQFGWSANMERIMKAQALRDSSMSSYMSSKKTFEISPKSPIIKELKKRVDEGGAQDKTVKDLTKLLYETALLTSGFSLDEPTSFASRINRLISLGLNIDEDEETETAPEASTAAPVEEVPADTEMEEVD

In the case of `COC1=C2C[C@@H](C)C[C@H](OC)[C@H](O)[C@@H](C)/C=C(\C)[C@H](OC(N)=O)[C@@H](OC)/C=C\C=C(/C)C(=O)NC(=CC1=O)C2=O` [GA, geldanamycin], at Mtb HtpG, the Kd – broadly, the concentration at which binding is half-saturated – is roughly 15.7 µM. Also, the “ATPase activity assay with purified protein (Figure S19)” value in series [1] is reported as “Both proteins exhibited low ATPase activity that was inhibited by GA (Figure S19)”.

B1: purified Mtb HtpG (size exclusion chromatography) (natural protein)
chain: T1 sequence (P9WMJ7 1-647)
Take B1: the binding result in “SEC” was “binds”.
